According to PMC10035904, “Synthesis of novel sulphamethoxazole derivatives and exploration of their anticancer and antimicrobial properties” (PLOS ONE, 2023):
Values after ≈ are worked out from the molar mass of the structure shown.

What was measured:
[1] = test system: Staphylococcus epidermidis ATCC 12228; assay: Serial broth dilution in liquid medium, S. epidermidis; format: cell-based; conditions: Mueller-Hinton broth, 24 hours; result in words
Description: (§1) Antibacterial and antifungal susceptibility to the compound 16b was tested using a serial broth dilution technique in Mueller-Hinton broth II (BBL, Cockeysville, USA), as described elsewhere. All procedures were done in aseptic conditions. Standard bacterial and fungal cultures were used: Staphylococcus aureus ATCC 25923, Staphylococcus epidermidis ATCC 12228, Escherichia coli ATCC 25922, Enterococcus faecalis ATCC 29212, Klebsiella pneumoniae ATCC 33499, Pseudomonas aeruginosa ATCC 27853, Proteus mirabilis ATCC 12459, Bacillus cereus ATCC 8035, and Candida albicans ATCC 60193. Standard cultures of nonsporic bacteria S. aureus, S. epidermidis, E. coli, E. faecalis, K. pneumoniae, P. aeruginosa and P. mirabilis were cultivated for 20–24 hours at 37°C in Mueller-Hinton Agar (BBL, Cockeysville, USA). A bacterial suspension was prepared from cultivated bacterial cultures in physiological solution according to turbidity standard 0.5 McFarland. Standard culture of sporic bacteria B. cereus was cultivated for 7 days at 37°C in Mueller-Hinton II Agar. […] Then the absorbance was measured at 600 nm using a multi-detection microplate reader. […]

[2] = test system: human prostate carcinoma cell line PPC-1; assay: MTT cell viability assay, PPC-1; format: cell-based; conditions: 72 hours of incubation, n = 3, read-out: EC50 against PPC-1
Description: (§2) The human clear cell renal cell carcinoma line (CaKi-1) was obtained from American Type Culture Collection (ATCC, Manassas, VA). The human prostate carcinoma cell line PPC-1 was originally obtained from ATCC and kindly provided by Prof. Tambet Teesalu (University of Tartu, Estonia). Human foreskin fibroblasts (HF) CRL-4001 were originally obtained from ATCC and kindly provided by Prof. Helder Santos (University of Helsinki, Finland). Cells were cultured in Dulbecco’s Modified Eagle’s GlutaMAX medium (Gibco (Carlsbad, CA, USA) supplemented with 10,000 U/mL penicillin, 10 mg/mL streptomycin (Gibco), and 10% fetal bovine serum (Gibco). During cell passaging, Tryple Express reagent (Gibco) was used for cell detachment. Cell cultures were grown at 37°C in a humidified atmosphere containing 5% CO2. They were used until the passage of 20.
(§3) The effect of synthesized compounds on cell viability was studied using 3-(4,5-dimethylthiazol-2-yl)-2,5-diphenyltetrazolium bromide (MTT; Sigma-Aldrich Co., St Louis, MO, USA) assay, as described elsewhere. […] The absorbance was measured at 570 and 630 nm using a multi-detection microplate reader. The compound effect on cell viability was calculated using a formula (1): Relativecellviability%=A−A0/ANC−A0 (1) Where: […]

[3] = test system: Escherichia coli ATCC 25922; assay: Serial broth dilution in liquid medium, E. coli; format: cell-based; conditions: ATCC25922, Mueller-Hinton broth, 24 hours, n = 3
Description: as §1

[4] = test system: Candida albicans ATCC 60193; assay: Serial dilution on solid agar, C. albicans; format: cell-based; conditions: ATCC60193, solid Mueller-Hinton agar, 24 hours
Description: (§4) Antimicrobial activity of compound 16b on solid agar was tested using the same microbial cultures, and the same suspension preparation procedure, as described in above section. All procedures were done in aseptic conditions.
(§5) Mueller-Hinton agar was boiled and kept at to 37 °C during the whole procedure. Compound 16b solution was prepared in DMSO right before experiment. The Agar was mixed with compound solution at different ratios to make the final compound concentrations of 1 mM, 400 μM, 200 μM and 100 μM. Then 10 ml of prepared solution was poured into sterile Petri dishes (85 mm in diameter) and kept in aseptic conditions while the agar solidified. The agar with 0.5% of DMSO served as a negative control. With the help of loop standard microbial cultures by 0.1 ml were poured on the surface of prepared agar with investigative compound. Then Petri dishes were kept for 24 hours in thermostatic conditions.
(§6) The minimal dilution, i.e. the lowest concentration in μg/mL of the investigative and comparison compounds that inhibited visible growth of microorganisms was the minimal inhibitory concentration (MIC).

[5] = test system: Staphylococcus aureus ATCC 25923; assay: Serial dilution on solid agar, S. aureus; format: cell-based; conditions: ATCC25923, solid Mueller-Hinton agar, 24 hours
Description: as §4, §5, §6

[6] = test system: Bacillus cereus ATCC 8035; assay: Serial broth dilution in liquid medium, B. cereus; format: cell-based; conditions: Mueller-Hinton broth, 24 hours; result in words
Description: as §1

[7] = test system: Bacillus cereus ATCC 8035; assay: Serial dilution on solid agar, B. cereus; format: cell-based; conditions: ATCC8035, solid Mueller-Hinton agar, 24 hours
Description: as §4, §5, §6

[8] = test system: human clear cell renal cell carcinoma line (CaKi-1); assay: MTT cell viability assay, CaKi-1; format: cell-based; conditions: 72 hours of incubation, n = 3, read-out: EC50 against CaKi-1
Description: as §2, §3

With `Cc1cc(NS(=O)(=O)c2ccc(NCCC(=O)NN=Cc3ccc([N+](=O)[O-])o3)cc2)no1` [Compound 16b, N-(5-methylisoxazol-3-yl)-4-((3-(2-((5-nitrofuran-2-yl)methylene)hydrazineyl)-3-oxopropyl)amino)-benzenesulfonamide] the “sensitivity of S. epidermidis in liquid medium” value [1] was “most sensitive”, the melting point was 221 to 222 °C and the EC50 [2] was 10.4 ± 3 µM. For the same molecule, the EC50 [3] was > 100 µM, the MIC [4] was 400 µM (≈ 185 µg/mL) and the MIC [5] was 100 µM (≈ 46.2 µg/mL). For the same molecule, the “sensitivity of B. cereus in liquid medium” value [6] was “most sensitive”, the MIC [7] was 400 µM (≈ 185 µg/mL) and the EC50 [8] was 12.4 ± 1.6 µM.
